In the NIST ThermoML archive (doi:10.1021/je049919e):

Test: xn = mol fraction of the nth substance listed
Conditions: Ring tensiometer

CC1CCCC(O)C1 (stereo not drawn) [3-methyl-1-cyclohexanol, (cis+trans)] + OCCO
surface tension liquid-gas [mN/m]
Conditions	293.15 K	298.15 K	303.15 K	308.15 K	313.15 K	318.15 K	323.15 K
x1 = 0.05	36.72	36.51	36.29	36.07	35.88	35.66	35.44
x1 = 0.097	34.08	33.87	33.67	33.46	33.26	33.08	32.89
x1 = 0.258	31.57	31.25	30.97	30.7	30.42	30.15	29.91
x1 = 0.329	30.94	30.6	30.32	30.01	29.75	29.48	29.17
x1 = 0.389	30.57	30.23	29.98	29.65	29.38	29.09	28.76
x1 = 0.535	29.84	29.51	29.19	28.86	28.57	28.28	27.96
x1 = 0.623	29.39	29.05	28.75	28.43	28.14	27.82	27.42
x1 = 0.768	28.85	28.47	28.16	27.8	27.46	27.18	26.84
x1 = 0.864	28.43	28.02	27.68	27.34	27.03	26.69	26.33
x1 = 0.899	28.24	27.9	27.56	27.24	26.85	26.5	26.18
x1 = 1	27.82	27.48	27.12	26.76	26.4	26.06	25.7
